The source of these data is US20200316100A1, “HALOALKYL FUCOSE-CONTAINING SELECTIN ANTAGONISTS” (GlycoMimetics, Inc., priority 2016, published 2020).

For the assay, the target named is T1, E-selectin/Ig chimera (Homo sapiens, UniProt P16581).
T1 sequence (P16581 22-556): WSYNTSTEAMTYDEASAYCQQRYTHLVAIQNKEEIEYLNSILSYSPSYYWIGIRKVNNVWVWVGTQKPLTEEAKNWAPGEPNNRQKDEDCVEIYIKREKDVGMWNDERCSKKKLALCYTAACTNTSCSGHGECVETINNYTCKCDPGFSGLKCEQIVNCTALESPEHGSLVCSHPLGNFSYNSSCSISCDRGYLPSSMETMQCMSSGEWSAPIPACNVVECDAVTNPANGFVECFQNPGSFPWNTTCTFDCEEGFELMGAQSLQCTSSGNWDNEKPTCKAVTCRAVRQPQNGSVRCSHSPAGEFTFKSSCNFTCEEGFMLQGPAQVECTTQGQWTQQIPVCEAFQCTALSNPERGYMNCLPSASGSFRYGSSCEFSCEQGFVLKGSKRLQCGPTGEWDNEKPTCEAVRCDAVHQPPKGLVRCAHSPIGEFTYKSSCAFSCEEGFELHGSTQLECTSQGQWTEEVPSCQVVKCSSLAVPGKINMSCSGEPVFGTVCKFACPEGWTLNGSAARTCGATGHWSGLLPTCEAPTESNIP
Briefly: E-Selectin Activity - Alternative Binding Assay (inhibition of sLea binding to immobilized E-selectin/Ig chimera). The conditions noted are these: concentration required to inhibit binding of biotinylated sLea polyacrylamide/streptavidin-HRP conjugate to immobilized E-selectin by 50%; absorbance 450 nm. The protocol: E-selectin/Ig chimera was immobilized in 96 well microtiter plates by incubation at 37° C. for 2 hours. To reduce nonspecific binding, bovine serum albumin was added to each well and incubated at room temperature for 2 hours. The plate was washed and serial dilutions of the test compounds were added to the wells in the presence of conjugates of biotinylated, sLe^a polyacrylamide with streptavidin/horseradish peroxidase and incubated for 2 hours at room temperature.
To determine the amount of sLe^a hound to immobilized E-selectin after washing, the peroxidase substrate, 3,3′,5,5′ tetrametbylbenzidine (TMB) was added. After 3 minutes, the enzyme reaction was stopped by the addition of H3PO4, and the absorbance of light at a wavelength of 450 nm was determined.

Broadly, the IC50 is the concentration at which inhibition is half-maximal. Higher therefore signals weaker potency in that assay. As to `CCC1CCCC(OC2OC(CO)C(O)C(OC(CC3CCCCC3)C(=O)O)C2OC(=O)c2ccccc2)C1OC1OC(C(F)(F)F)C(O)C(O)C1O` [Compound 75, sodium (5)-2-(((2R,3R,4S,5S,6R)-3-(benzoyloxy)-2-(((1R,2R,3S)-3-ethyl-2-(((2R,3S,4R,5S,6R)-3,4,5-trihydroxy-6-(trifluoromethyl)tetrahydro-2H-pyran-2-yl)oxy)cyclohexypoxy)-5-hydroxy-6-(hydroxymethyl)tetrahydro-2H-pyran-4-yl)oxy)-3-cyclohexylpropanoate], the IC50 came to 700 nM.
